From article PMC10084949, “Peptide Variant Detection by a Living Yeast Biosensor via an Epitope-Selective Protease” (Biodesign Research, 2023)

Tests used:
[1] = molecular target: T1, ScSte2 (Saccharomyces cerevisiae, UniProt D6VTK4); assay: cell-based; conditions: SEM
T1 construct: we cloned codon-optimized open reading frames (ORFs) of all 5 proteases and GPCRs; expressed in transfected cells; host or cells: S. cerevisiae yTC391 (from yTC370, native STE2 deleted; pTDH3-ScSTE2 genome-integrated)
Experimental: (§1) Glycerol stocked strains were streaked out on YPD plate and incubated for 2 days. Three colonies were picked, replated on YPD plate, incubated for 1 day, and then stored at 4 °C. For activation assays, a small scoop of yeast patch from the 3 colonies was resuspended in ~4 ml of YPD medium and incubated overnight. Overnight cells were seeded at an optical density at 600 nm (OD600) of 0.15 (as measured in 96-well plate at 200-μl volume) in SC/Glc medium after washing twice with sterile Mili-Q H2O. GPCR activity and response to increasing concentrations of synthetic peptide ligands were measured in strains carrying appropriate genome-integrated components in 96-well microtiter plates in 200-μl total volume and cultured at 30 °C and 800 rpm, unless otherwise stated. All measurements were performed in biological triplicate. Culture turbidity (OD600) and fluorescence for ymTurquoise2 (excitation, 439 nm; emission, 475 nm; gain, 75) were measured after 0 and 8 h using an Infinite 200 Pro plate reader (Tecan). Dose–response curve was measured at 11 different concentrations of the appropriate synthetic peptide ligand with a constant dilution factor and a no-peptide, H2O control. The absorbance at 600 nm normalized fluorescence values and log10-transformed peptide concentrations were fit to a 4-parameter nonlinear regression model using Prism (GraphPad) to extract GPCR-specific values for basal activation, maximal activation, EC50, and the Hill coefficient.
(§2) Statistical tests of all experiments were performed using GraphPad Prism version 7 and are detailed within the legend of each figure. In all figures, the data points represent means ± SD of biological triplicates. Curves fitted to all dose–response data were fitted in Prism 7 using the nonlinear regression: variable slope (4-parameter) curve fitting.
(§3) Changes in EC50 and activation span (maximal fluorescence activation − basal fluorescence activation) due to difference in variant peptide sequences from the wild-type peptides are depicted as ΔlogEC50 from wild-type Pep (variant peptide logEC50 − wild-type peptide logEC50) and ΔSpan from wild-type Pep (variant peptide Span – wild-type peptide Span), respectively. Apparent shift in EC50 and change in activation span in both wild-type and variant peptides due to protease expression are depicted as ΔlogEC50 with protease (peptide logEC50 with protease − peptide logEC50 without protease) and ΔSpan with protease (peptide Span with protease − peptide Span without protease), respectively.

[2] = molecular target: T2, ScSte2 + ScBar1 (Saccharomyces cerevisiae, UniProt D6VTK4); assay: Dose-response activation of ScSte2 biosensor strain secreting ScBar1 (two copies, yBB01), fluorescent readout; type: cell-based; conditions: SEM
T2 construct: we cloned codon-optimized open reading frames (ORFs) of all 5 proteases and GPCRs; expressed in transfected cells; host or cells: S. cerevisiae yBB01 (from yTC370; pTDH3-ScSTE2, two pCCW12-ScBAR1 cassettes, genome-integrated)
Experimental: as §1, §2, §3

T2 sequence (D6VTK4 whole entry): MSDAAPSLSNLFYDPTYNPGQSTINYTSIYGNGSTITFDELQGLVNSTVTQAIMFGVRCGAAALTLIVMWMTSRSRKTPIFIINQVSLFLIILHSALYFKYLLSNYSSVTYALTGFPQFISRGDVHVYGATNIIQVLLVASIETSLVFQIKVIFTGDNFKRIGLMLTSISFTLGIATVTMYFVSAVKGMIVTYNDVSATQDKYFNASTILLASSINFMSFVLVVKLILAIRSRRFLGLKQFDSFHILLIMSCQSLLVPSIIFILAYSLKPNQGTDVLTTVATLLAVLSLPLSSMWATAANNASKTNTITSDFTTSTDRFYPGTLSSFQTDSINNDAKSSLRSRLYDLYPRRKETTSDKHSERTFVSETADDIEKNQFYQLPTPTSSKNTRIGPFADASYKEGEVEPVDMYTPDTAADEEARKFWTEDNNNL
T1 sequence (D6VTK4 whole entry): as above

SMILES | EC50 [1] | EC50 [2]
CSCC[C@H](NC(=O)[C@@H]1CCCN1C(=O)[C@H](CCC(N)=O)NC(=O)CNC(=O)[C@@H]1CCCN1C(=O)[C@H](CCCCN)NC(=O)[C@H](CC(C)C)NC(=O)[C@H](CCC(N)=O)NC(=O)[C@H](CC(C)C)NC(=O)[C@H](Cc1c[nH]c2ccccc12)NC(=O)[C@H](Cc1c[nH]cn1)NC(=O)[C@H](C)N)C(=O)N[C@@H](Cc1ccc(O)cc1)C(=O)O [ScPep1A] | 39.8 nM | 1260 nM
CSCC[C@H](NC(=O)[C@@H]1CCCN1C(=O)[C@H](CCC(N)=O)NC(=O)CNC(=O)[C@@H]1CCCN1C(=O)[C@H](CCCCN)NC(=O)[C@H](CC(C)C)NC(=O)[C@H](CCC(N)=O)NC(=O)[C@H](CC(C)C)NC(=O)[C@H](Cc1c[nH]c2ccccc12)NC(=O)[C@H](C)NC(=O)[C@@H](N)Cc1c[nH]c2ccccc12)C(=O)N[C@@H](Cc1ccc(O)cc1)C(=O)O [ScPep2A] | 79.4 nM | 10000 nM
CSCC[C@H](NC(=O)[C@@H]1CCCN1C(=O)[C@H](CCC(N)=O)NC(=O)CNC(=O)[C@@H]1CCCN1C(=O)[C@H](CCCCN)NC(=O)[C@H](CC(C)C)NC(=O)[C@H](CCC(N)=O)NC(=O)[C@H](CC(C)C)NC(=O)[C@H](C)NC(=O)[C@H](Cc1c[nH]cn1)NC(=O)[C@@H](N)Cc1c[nH]c2ccccc12)C(=O)N[C@@H](Cc1ccc(O)cc1)C(=O)O [ScPep3A] | 63.1 nM | 25100 nM
CSCC[C@H](NC(=O)[C@@H]1CCCN1C(=O)[C@H](CCC(N)=O)NC(=O)CNC(=O)[C@@H]1CCCN1C(=O)[C@H](CCCCN)NC(=O)[C@H](CC(C)C)NC(=O)[C@H](CCC(N)=O)NC(=O)[C@H](C)NC(=O)[C@H](Cc1c[nH]c2ccccc12)NC(=O)[C@H](Cc1c[nH]cn1)NC(=O)[C@@H](N)Cc1c[nH]c2ccccc12)C(=O)N[C@@H](Cc1ccc(O)cc1)C(=O)O [ScPep4A] |  | 3980 nM
CSCC[C@H](NC(=O)[C@@H]1CCCN1C(=O)[C@H](CCC(N)=O)NC(=O)CNC(=O)[C@@H]1CCCN1C(=O)[C@H](CCCCN)NC(=O)[C@H](CC(C)C)NC(=O)[C@H](C)NC(=O)[C@H](CC(C)C)NC(=O)[C@H](Cc1c[nH]c2ccccc12)NC(=O)[C@H](Cc1c[nH]cn1)NC(=O)[C@@H](N)Cc1c[nH]c2ccccc12)C(=O)N[C@@H](Cc1ccc(O)cc1)C(=O)O [ScPep5A] | 50.1 nM | 501 nM
CSCC[C@H](NC(=O)[C@@H]1CCCN1C(=O)[C@H](CCC(N)=O)NC(=O)CNC(=O)[C@@H]1CCCN1C(=O)[C@H](CCCCN)NC(=O)[C@H](C)NC(=O)[C@H](CCC(N)=O)NC(=O)[C@H](CC(C)C)NC(=O)[C@H](Cc1c[nH]c2ccccc12)NC(=O)[C@H](Cc1c[nH]cn1)NC(=O)[C@@H](N)Cc1c[nH]c2ccccc12)C(=O)N[C@@H](Cc1ccc(O)cc1)C(=O)O [ScPep6A] | 79.4 nM | 3160 nM
CSCC[C@H](NC(=O)[C@@H]1CCCN1C(=O)[C@H](CCC(N)=O)NC(=O)CNC(=O)[C@@H]1CCCN1C(=O)[C@H](C)NC(=O)[C@H](CC(C)C)NC(=O)[C@H](CCC(N)=O)NC(=O)[C@H](CC(C)C)NC(=O)[C@H](Cc1c[nH]c2ccccc12)NC(=O)[C@H](Cc1c[nH]cn1)NC(=O)[C@@H](N)Cc1c[nH]c2ccccc12)C(=O)N[C@@H](Cc1ccc(O)cc1)C(=O)O [ScPep7A] | 126 nM | 3980 nM
CSCC[C@H](NC(=O)[C@@H]1CCCN1C(=O)[C@H](CCC(N)=O)NC(=O)CNC(=O)[C@H](C)NC(=O)[C@H](CCCCN)NC(=O)[C@H](CC(C)C)NC(=O)[C@H](CCC(N)=O)NC(=O)[C@H](CC(C)C)NC(=O)[C@H](Cc1c[nH]c2ccccc12)NC(=O)[C@H](Cc1c[nH]cn1)NC(=O)[C@@H](N)Cc1c[nH]c2ccccc12)C(=O)N[C@@H](Cc1ccc(O)cc1)C(=O)O [ScPep8A] | 79.4 nM | 2510 nM
CSCC[C@H](NC(=O)[C@@H]1CCCN1C(=O)[C@H](CCC(N)=O)NC(=O)[C@H](C)NC(=O)[C@@H]1CCCN1C(=O)[C@H](CCCCN)NC(=O)[C@H](CC(C)C)NC(=O)[C@H](CCC(N)=O)NC(=O)[C@H](CC(C)C)NC(=O)[C@H](Cc1c[nH]c2ccccc12)NC(=O)[C@H](Cc1c[nH]cn1)NC(=O)[C@@H](N)Cc1c[nH]c2ccccc12)C(=O)N[C@@H](Cc1ccc(O)cc1)C(=O)O [ScPep9A] | 158 nM | 15800 nM
CSCC[C@H](NC(=O)[C@@H]1CCCN1C(=O)[C@H](C)NC(=O)CNC(=O)[C@@H]1CCCN1C(=O)[C@H](CCCCN)NC(=O)[C@H](CC(C)C)NC(=O)[C@H](CCC(N)=O)NC(=O)[C@H](CC(C)C)NC(=O)[C@H](Cc1c[nH]c2ccccc12)NC(=O)[C@H](Cc1c[nH]cn1)NC(=O)[C@@H](N)Cc1c[nH]c2ccccc12)C(=O)N[C@@H](Cc1ccc(O)cc1)C(=O)O [ScPep10A] | 126 nM | 6310 nM
CSCC[C@H](NC(=O)[C@H](C)NC(=O)[C@H](CCC(N)=O)NC(=O)CNC(=O)[C@@H]1CCCN1C(=O)[C@H](CCCCN)NC(=O)[C@H](CC(C)C)NC(=O)[C@H](CCC(N)=O)NC(=O)[C@H](CC(C)C)NC(=O)[C@H](Cc1c[nH]c2ccccc12)NC(=O)[C@H](Cc1c[nH]cn1)NC(=O)[C@@H](N)Cc1c[nH]c2ccccc12)C(=O)N[C@@H](Cc1ccc(O)cc1)C(=O)O [ScPep11A] | 50.1 nM | 2510 nM
CC(C)C[C@H](NC(=O)[C@H](Cc1c[nH]c2ccccc12)NC(=O)[C@H](Cc1c[nH]cn1)NC(=O)[C@@H](N)Cc1c[nH]c2ccccc12)C(=O)N[C@@H](CCC(N)=O)C(=O)N[C@@H](CC(C)C)C(=O)N[C@@H](CCCCN)C(=O)N1CCC[C@H]1C(=O)NCC(=O)N[C@@H](CCC(N)=O)C(=O)N1CCC[C@H]1C(=O)N[C@@H](C)C(=O)N[C@@H](Cc1ccc(O)cc1)C(=O)O [ScPep12A] | 50.1 nM | 1000 nM
CSCC[C@H](NC(=O)[C@@H]1CCCN1C(=O)[C@H](CCC(N)=O)NC(=O)CNC(=O)[C@@H]1CCCN1C(=O)[C@H](CCCCN)NC(=O)[C@H](CC(C)C)NC(=O)[C@H](CCC(N)=O)NC(=O)[C@H](CC(C)C)NC(=O)[C@H](Cc1c[nH]c2ccccc12)NC(=O)[C@H](Cc1c[nH]cn1)NC(=O)[C@@H](N)Cc1c[nH]c2ccccc12)C(=O)N[C@@H](C)C(=O)O [ScPep13A] | 63.1 nM | 7940 nM
